The values that follow come from patent publication US20200080053A1, “USE OF PEPTIDE COMPOUNDS FOR PROMOTING SURVIVAL, GROWTH AND CELL DIFFERENTIATION” (Axoltis Pharma, priority 2016, published 2020).

In assay [1] the test system is human mesenchymal stem cells (hMSC). Put plainly: Cell proliferation of hMSCs depending on the culture conditions. In kind it is cell-based. As to conditions: whatever the conditions / FBS concentration (2% or 10% FBS). From the text:
Adult human bone marrow mononuclear cells Ficoll-extracted from two donors were obtained from Lonza. Cells were passaged once a week. The human mesenchymal stem cells (hMSC) were selected by plastic adherence and expanded by plating 50 000 cells/cm^2 in Modified Eagle Medium Alpha (MEMalpha, MacoPharma) supplemented with 10% Fetal Bovine Serum (FBS, PAA Laboratoires) and 0.1% Penicilline/Streptomycine (P/S, Lonza). The culture medium was changed after 3 days and then every day. After 2 to 5 weeks of culture at 37° C. in a humid environment and under 5% CO2, hMSC were harvested by trypsinization. The phenotype was confirmed by FACS analysis (BD Bioscience, BD LSR II) with CD73, CD90 and CD105 (positive), as well as CD34 and CD45 (negative) (Table 1).
To investigate the neural differentiation capacity of the peptides, 25 cm^2 flasks and 12-wells culture plates were coated with sterile aqueous solutions of either NX210 or NS640 at a concentration of 80 μg/cm^2. Coatings were carried out at 37° C. and 5% CO2 over-night prior to cell plating.
On Day 0 (D0), hMSC were seeded at a concentration of 3,000 cells/cm^2 in pre-coated 25 cm^2 flasks or 12-well culture plates in complete medium and culture was placed at 37° C. in a humid environment and under 5% CO2. After 24h, medium was changed and replaced by different combinations of media containing either: MEMalpha—bFGF 12.5 ng/mL—FBS 2%—P/S 0.1%; MEMalpha—bFGF 12.5 ng/mL—FBS 10%—P/S 0.1%; MEMalpha—FBS 2%—P/S 0.1% (control condition); MEMalpha—FBS 10%—P/S 0.1% (control condition). The cells were placed at 37° C. in a humid environment and under 5% CO2, and medium was changed twice a week. […] thus was changed with: MEMalpha—ATRA […]—FBS 2%—P/S 0.1%; MEMalpha—ATRA 20 μM—FBS 10%—P/S 0.1%; MEMalpha—FBS 2%—P/S 0.1% (control condition); MEMalpha—FBS 10%—P/S 0.1% (control condition). The cells were placed at 37° C. in a humid environment and under 5% CO2. Medium was changed twice a week. On Day 15 (D15), cells were harvested by trypsinization for mRNA extraction or fixed immunocytochemical analysis.

Assay [2] deals with ESCs / neuroepithelial progenitors. Put plainly: Selection of neuroepithelial progenitors from ESC embryoid bodies, Nestin immunostaining. The class given is cell-based. How it is done: For these experiments, the differentiation of ESCs was preferably orientated to the neuronal differentiation pathway, according to the protocol adapted from Okabe et al., (Mechanisms of Development, 59:89-102, 1996).
In brief, to start the differentiation, the ESCs were grown on gelatin without LIF for two days. The cells were carefullly trypsinated to collect small ESC aggregates. Then, these aggregates were transferred on a Petri dish without any coating to produce non-adherent spherical cell bodies, namely the embryoid bodies (EB).
After 5 days of culture, the EB were transferred onto a new Petri dish covered with gelatin to enable cell adhesion.
After 24h of culture, the culture medium with fetal bovine serum 10% was replaced by a culture medium serum free to select neuroepithelial progenitors and the peptide NX210 (SEQ ID NO: 6) was added in the culture medium at a concentration of 0.5 mg/ml.
After 6 days of culture, the maximal content of cells expressing the nestin protein (a cytoskeletal protein specific of the neuroepithelial progenitors) was reached.
The cell population enriched for neuroepithelial progenitors was then trypsinated and seeded at a concentration of 1×10^5 cells/cm^2 on a substrate made up of a polyornithine and laminin mix. […]

As for “W-S-G-W-S-S-C-S-R-S-C-G (WSGWSSCSRSCG) [NX210]”, in assay [1], the “effect on cell proliferation (number of MSCs)” value was “no effect”. The “cells expressing the Nestin protein (neuronal precursors)” value in assay [2] (0.5 mg/ml NX210 in serum free medium, then 2 days with FGF2, compared to untreated culture) was “More cells expressing the Nestin protein”. Further, in assay [2] (during selection of the neuroepithelial progenitors), the “response to the specific stimulation by FGF2” value is on record as “promotes a more efficient response”.
